# Test results from patent US9839632B2, “Methods and compositions using 4-amino-2-(2,6-dioxo-piperidine-3-yl)-isoindoline-1,3-dione for treatment and management of central nervous system cancers” (CELGENE CORPORATION, priority 2013, dated 2017).
# How the values were obtained:
# [1] = system: U937 cells cocultured with OCI-LY10 lymphoma cells; assay: Polarization of U937 cocultured with OCI-LY10 lymphoma cells with or without YTS NK cells; format: cell-based, human; conditions: for M2 polarization of U937 cells (FXIIIA, pSTAT6): coculture with OCI-LY10 lymphoma cells, without NK cells; for polarization status of U937 cells (iNOS, pSTAT1): triple culture with OCI-LY10 lymphoma cells and YTS NK cells, 10 ug/ml 48 hours
# Procedure: (§1) Raji lymphoma cells (ATCC), U937 human monocyte cells (ATCC) and YTS NK cells (a gift from Dr. Pamela A. Becker) were cultured at 37° C. in a humidified incubator under 5% CO2 and 95% air in RPMI-1640 supplemented with 20% FCS and 1% penicillin-streptomycin, and 1% nonessential amino acids.
# OCI-LY10 lymphoma cells (a gift from Arthur L. Shaffer III) were cultured at 37° C. in a humidified incubator under 5% CO2 and 95% air in IMDM supplemented with 20% FCS and 1% penicillin-streptomycin. Co-culture of lymphoma cells and U937 monocytes: Raji and U937 monocytes were cultured at 37° C. in a humidified incubator under 5% CO2 and 95% air in RPMI-1640 supplemented with 20% FCS and 1% penicillin-streptomycin, and 1% nonessential amino acids. OCI-LY10 and U937 monocytes were cultured at 37° C. in a humidified incubator under 5% CO2 and 95% air in IMDM supplemented with 20% FCS and 1% penicillin-streptomycin. Triple culture of lymphoma cells, U937 monocytes and YTS cells: Raji, U937 and YTS cells were cultured at 37° C. in a humidified incubator under 5% CO2 and 95% air in RPMI-1640 supplemented with 20% FCS and 1% penicillin-streptomycin, and 1% nonessential amino acids. OCI-LY10, U937 and YTS were cultured at 37° C. in a humidified incubator under 5% CO2 and 95% air in IMDM supplemented with 20% FCS and 1% penicillin-streptomycin.
# (§2) Treatments: In experiments in which IL-4 was used to induce M2 polarization of macrophages, cells were treated with IL-4 (20 ng/ml) for 48 hours followed by treatment with 4-amino-2-(2,6-dioxo-piperidine-3-yl)-isoindoline-1,3-dione (10 ug/ml) or DMSO control for 48 hours. In triple cell culture experiments with lymphoma cells, macrophages, and NK cells, the treatment was with either DMSO or 4-amino-2-(2,6-dioxo-piperidine-3-yl)-isoindoline-1,3-dione (10 ug/ml) for 48 hours.
# (§3) Immunofluorescence for analysis of macrophage polarization in cell culture experiments: Live cells were fixed in 10% formalin for 30 minutes at room temperature followed by permeabilization with PBS-0.2% Triton X-100 for 2 min. After blocking with PBS-5% goat serum-0.02% Triton X-100 for 30 minutes at 37° C., the cells were incubated overnight at 4° C. with rat monoclonal F4/80 antibody (for primary microglia cells, 1:200 Abcam), rat monoclonal CD11b (for U937, 1:200 Biolegend), rabbit polyclonal Ym1 antibody (for primary microglia cells and primary peritoneal macrophages, 1:200, Stemcell Technologies, Vancouver, Canada), rabbit polyclonal FXIII A antibody (for U937, 1:200, Abcam), mouse monoclonal p-STAT1 antibody (1:200, Abcam), rabbit polyclonal p-STAT6 antibody (1:200, Abcam) or rabbit iNOS antibody (1:200, Calbiochem). […]
# [2] = system: human monocyte U937 cells; assay: Phagocytosis assay, human monocyte U937 cells; format: cell-based; conditions: 3 or 10 ug/ml, 48 hours, P<0.05 vs control
# Procedure: Phagocytosis assay: The impact of 4-amino-2-(2,6-dioxo-piperidine-3-yl)-isoindoline-1,3-dione on the phagocytic activity of macrophages was assessed in primary microglial cells and human monocyte cells (U937). The cells were cultured in complete medium for 4 days. They were then harvested and resuspended in Opti-MEM medium at 10^6 cells/ml and seeded in a 96 well plate at 100,000 viable cells/well. The experimental wells were treated with 4-amino-2-(2,6-dioxo-piperidine-3-yl)-isoindoline-1,3-dione 3 or 10 ug/ml. After 48 hours of treatment, the culture medium was quickly replaced with 100 ul of pHrodo BioParticles suspension (Life technologies and the cells were incubated in the suspension at 37° C. for 2-3 hours. Following incubation, the plates were scanned at 550 nm/600 nm (excitation/emission) using fluorescence plate reader. The fluorescence activity reflects the phagocytic activity of the macrophages. The impact of 4-amino-2-(2,6-dioxo-piperidine-3-yl)-isoindoline-1,3-dione treatment (% effect) was calculated as a fraction of the phagocytic activity in the positive control wells. Wan, C. P.; et al., J. Immunol. Methods, 1993, 162, pp. 1-7.
# [3] = system: primary murine microglia cells; assay: Polarization of IL4-treated primary murine microglia cells (immunofluorescence); format: cell-based; conditions: IL-4 20 ng/ml 48 hours then 10 ug/ml 48 hours
# Procedure: as §2, §3
# human monocyte U937 = assay: Polarization of IL4-treated human monocyte U937 (immunofluorescence); format: cell-based; conditions: U937, IL-4 20 ng/ml 48 hours then 10 ug/ml 48 hours
# Procedure: as §1, §2
# Immunofluorescence for analysis of macrophage polarization in cell culture experiments: Live cells were fixed in 10% formalin for 30 minutes at room temperature followed by permeabilization with PBS-0.2% Triton X-100 for 2 min. […]
# [4] = system: primary murine peritoneal macrophages; assay: Polarization of IL4-treated primary murine peritoneal macrophages (immunofluorescence); format: cell-based; conditions: IL-4 20 ng/ml 48 hours then 10 ug/ml 48 hours
# Procedure: as §2, §3
# [5] = listed as 4-amino-2-(2,6-dioxo-piperidine-3-yl)-isoindoline-1,3-dione
smiles,measurement,setting,value
"Nc1cccc2c1C(=O)N(C1CCC(=O)NC1=O)C2=O (centres unmarked) [Pomalidomide, 4-amino-2-(2,6-dioxo-piperidine-3-yl)-isoindoline-1,3-dione]","M2 polarization of U937 cells (FXIIIA, pSTAT6)",[1],reversed
same,"M2 polarization of U937 cells (FXIIIA, pSTAT6)",[1]; [5],prevented the M2 polarization of macrophages but did not induce them into M1 polarization
same,"polarization status of U937 cells (iNOS, pSTAT1)",[1],from M2 to M1
same,"polarization status of U937 cells (iNOS, pSTAT1)",[1]; [5],became M1-polarized
same,phagocytic activity,[2],significantly increased
same,"polarization status (FXIII A, pSTAT6 vs iNOS, pSTAT1 expression)",[3],from M2 to M1
same,"polarization status (FXIII A, pSTAT6 vs iNOS, pSTAT1 expression)",human monocyte U937,from M2 to M1
same,"polarization status (FXIII A, pSTAT6 vs iNOS, pSTAT1 expression)",[4],from M2 to M1
